Consider 18 compounds from patent publication US8158621B2, “Methods of treating or preventing autoimmune diseases with 2,4-pyrimidinediamine compounds” (Rigel Pharmaceuticals, Inc., priority 2002, dated 2012).

One assay deals with Human Jurkat T-cells (clone N). Briefly: Jurkat T-cell activation (anti-TCR, CD69 upregulation). The format is cell-based.
Conditions: not given
A digest of the protocol:
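Readout is CD69 upregulation by flow cytometry (anti-CD69-APC, 20 min at 4 °C) after 20 h anti-TCR (C305, 500 ng/ml) stimulation at 37 °C.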
The compound `Clc1nc(Nc2ccc3c(c2)OCCO3)nc(Nc2ccc3c(c2)OCCO3)c1Cl` [Compound R926467] displayed an IC50 of over 10 µM.
On to `Nc1cccc(Nc2nc(Nc3cccc(NCCO)c3)ncc2F)c1` [Compound R950180], for which the IC50 turned out to be 2.87 µM.
Same read-out and setting: the figure for `Oc1cccc(Nc2nc(Nc3ccc4[nH]ccc4c3)ncc2F)c1` [Compound R926749] is 4.68 µM.
Same read-out and setting: then `Oc1cccc(Nc2ncc(F)c(NCc3cccnc3)n2)c1` [Compound R945147], with over 10 µM; and `COC(=O)c1cc2cc(Nc3ncc(F)c(Nc4ccc(C(C)(C)C)cc4)n3)ccc2o1` [Compound R926477], with over 10 µM; and `Nc1cc(Nc2ncc(F)c(Nc3ccc(Nc4ccccc4)c(N)c3)n2)ccc1Nc1ccccc1` [Compound R950125], with over 10 µM.

Still in this assay, the particulars now being: Homo sapiens.
Take `Fc1cnc(Cl)nc1Nc1ccc2c(c1)CNCC2` [Compound R926912]: the IC50 was over 10 µM.

Staying with this assay, now noted: Homo sapiens, Jurkat.
`O=C1COc2ccc(Nc3nc(Cl)ncc3F)nc2N1` [Compound R945298] had an IC50 of 9.47 µM.
Still for that read-out and setting: then `Cc1cc(Nc2nc(Cl)ncc2F)ccc1F` [Compound R926921], with over 10 µM; and `CC(C)(C)OC(=O)N1CCc2ccc(Nc3nc(Cl)ncc3F)cc2C1` [Compound R926911], with over 10 µM; and `Fc1cnc(Cl)nc1Nc1ccc2c(c1)CN(c1nc(Cl)ncc1F)CC2` [Compound R926910], with over 10 µM.
Same read-out and setting: then `Cc1ccc(Nc2nc(Cl)ncc2F)cc1C(F)(F)F` [Compound R926920], with over 10 µM; and `CNC(=O)c1cc2cc(Nc3ncc(F)c(Nc4ccc(C(C)(C)C)cc4)n3)ccc2o1` [Compound R926713], with 8.22 µM.
In the case of `COC(=O)c1cc(Nc2nc(Cl)ncc2F)cc(C(F)(F)F)c1` [Compound R926861], the IC50 is over 10 µM.

The next assay deals with cultured human mast cells (CHMC). Briefly: CHMC low cell density ionomycin activation: tryptase assay. Particulars: Homo sapiens, Mast cell, Low Density CHMC, ionomycin activation, tryptase release; read-out: CHMC Ionomycin Tryptase IC50. It is filed as cell-based.
For `CNC(=O)c1cc2cc(Nc3ncc(F)c(Nc4ccc(C(C)(C)C)cc4)n3)ccc2o1` [Compound R926713], the IC50 was 8.74 µM.

Still in this assay, the particulars now being: Homo sapiens, Mast cell, Low Density; read-out: CHMC Ionomycin Tryptase.
For `O=C1COc2ccc(Nc3nc(Cl)ncc3F)nc2N1` [Compound R945298], the IC50 was over 10 µM.
In the case of `Cc1cc(Nc2nc(Cl)ncc2F)ccc1F` [Compound R926921], the IC50 was over 10 µM.
The same measure, in the same setting: then `CC(C)(C)OC(=O)N1CCc2ccc(Nc3nc(Cl)ncc3F)cc2C1` [Compound R926911], with over 10 µM.
Still for that read-out and setting: then `Fc1cnc(Cl)nc1Nc1ccc2c(c1)CN(c1nc(Cl)ncc1F)CC2` [Compound R926910], with over 10 µM.
Same read-out and setting: then `Fc1cnc(Cl)nc1Nc1ccc2c(c1)CNCC2` [Compound R926912], with over 10 µM.
For `Cc1ccc(Nc2nc(Cl)ncc2F)cc1C(F)(F)F` [Compound R926920], the IC50 was over 10 µM.
`COC(=O)c1cc(Nc2nc(Cl)ncc2F)cc(C(F)(F)F)c1` [Compound R926861]: the IC50 is over 10 µM.

The assay is the same for the next values; noted with them: Low Density CHMC, ionomycin activation, tryptase release; read-out: CHMC Ionomycin Tryptase IC50.
Regarding `Clc1nc(Nc2ccc3c(c2)OCCO3)nc(Nc2ccc3c(c2)OCCO3)c1Cl` [Compound R926467], the IC50 was 8.8 µM.
The same measure, in the same setting: the figure for `Oc1cccc(Nc2nc(Nc3ccc4[nH]ccc4c3)ncc2F)c1` [Compound R926749] is over 10 µM; for `COC(=O)c1cc2cc(Nc3ncc(F)c(Nc4ccc(C(C)(C)C)cc4)n3)ccc2o1` [Compound R926477] it is over 10 µM.

The same assay, now with this note: Low Density; read-out: CHMC Ionomycin Tryptase.
Take `Nc1cccc(Nc2nc(Nc3cccc(NCCO)c3)ncc2F)c1` [Compound R950180]: the IC50 was over 10 µM.
For the compound `Oc1cccc(Nc2ncc(F)c(NCc3cccnc3)n2)c1` [Compound R945147], the IC50 was over 10 µM.
On the same count and under the same terms, the figure for `Nc1cc(Nc2ncc(F)c(Nc3ccc(Nc4ccccc4)c(N)c3)n2)ccc1Nc1ccccc1` [Compound R950125] is 6.3 µM.

The assay is the same for the next values; noted with them: low cell density; read-out: CHMC Ionomycin Tryptase.
For the compound `CNC(=O)COc1cccc(Nc2ncc(F)c(Nc3ccc(OC(C)C)nc3)n2)c1` [Compound R926962], the IC50 was over 10 µM.
The same measure, in the same setting: then `CNC(=O)COc1cccc(Nc2ncc(F)c(Nc3ccc4c(c3)C(NC(=O)OC(C)(C)C)CCO4)n2)c1` (racemic) [Compound R950405], with over 10 µM; and `CNC(=O)COc1cccc(Nc2ncc(F)c(Nc3ccc4c(c3)C(N(C)C(=O)CN(C)C)CCO4)n2)c1` (racemic) [Compound R950419], with over 10 µM.
The same measure, in the same setting: then `COc1ccc(Nc2nc(Nc3ccc4cn(C)nc4c3)ncc2F)cc1Cl` [Compound R935446], with over 10 µM.

For a further assay the test system is unchanged. Briefly: CHMC low cell density IgE activation: tryptase assay. It is filed as cell-based. The note with it: Homo sapiens, Mast cell, Low Density CHMC, anti-IgE activation, tryptase release; read-out: CHMC anti-IgE Tryptase IC50. An outline of the steps:
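Degranulation is read as supernatant tryptase activity, using tryptase substrate incubated 30 min at room temperature. Before this, CHMC at low density (1000-1500 cells/well) rest 1 hr at 37° C and are triggered with anti-IgE for 30 min at 37° C.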
With `CNC(=O)c1cc2cc(Nc3ncc(F)c(Nc4ccc(C(C)(C)C)cc4)n3)ccc2o1` [Compound R926713], the IC50 is 0.446 µM.

The same assay, now with this note: Homo sapiens, Mast cell, Low Density; read-out: CHMC anti-IgE Tryptase.
As to `O=C1COc2ccc(Nc3nc(Cl)ncc3F)nc2N1` [Compound R945298], the IC50 is over 10 µM.
The same measure, in the same setting: then `Cc1cc(Nc2nc(Cl)ncc2F)ccc1F` [Compound R926921], with 99 µM; and `CC(C)(C)OC(=O)N1CCc2ccc(Nc3nc(Cl)ncc3F)cc2C1` [Compound R926911], with over 10 µM; and `Fc1cnc(Cl)nc1Nc1ccc2c(c1)CN(c1nc(Cl)ncc1F)CC2` [Compound R926910], with over 10 µM.
Same read-out and setting: then `Cc1ccc(Nc2nc(Cl)ncc2F)cc1C(F)(F)F` [Compound R926920], with over 10 µM; and `COC(=O)c1cc(Nc2nc(Cl)ncc2F)cc(C(F)(F)F)c1` [Compound R926861], with over 10 µM.

The assay is the same for the next values; noted with them: Homo sapiens, Mast cell, read-out: CHMC anti-IgE Tryptase.
`Fc1cnc(Cl)nc1Nc1ccc2c(c1)CNCC2` [Compound R926912]: the IC50 is over 10 µM.

Staying with this assay, now noted: Low Density CHMC, anti-IgE activation, tryptase release; read-out: CHMC anti-IgE Tryptase IC50.
For `Clc1nc(Nc2ccc3c(c2)OCCO3)nc(Nc2ccc3c(c2)OCCO3)c1Cl` [Compound R926467], the IC50 came out at 1.18 µM.
The same measure, in the same setting: the figure for `Oc1cccc(Nc2nc(Nc3ccc4[nH]ccc4c3)ncc2F)c1` [Compound R926749] is 0.472 µM; for `COC(=O)c1cc2cc(Nc3ncc(F)c(Nc4ccc(C(C)(C)C)cc4)n3)ccc2o1` [Compound R926477] it is 0.27 µM.

The assay is the same for the next values; noted with them: Low Density; read-out: CHMC anti-IgE Tryptase.
Turning to `Nc1cccc(Nc2nc(Nc3cccc(NCCO)c3)ncc2F)c1` [Compound R950180], the IC50 stood at 0.278 µM.
On the same count and under the same terms, then `Oc1cccc(Nc2ncc(F)c(NCc3cccnc3)n2)c1` [Compound R945147], with 3.55 µM.
As for `Nc1cc(Nc2ncc(F)c(Nc3ccc(Nc4ccccc4)c(N)c3)n2)ccc1Nc1ccccc1` [Compound R950125], the IC50 is 1.38 µM.

Still in this assay, the particulars now being: low cell density; read-out: CHMC anti-IgE Tryptase.
Regarding `CNC(=O)COc1cccc(Nc2ncc(F)c(Nc3ccc(OC(C)C)nc3)n2)c1` [Compound R926962], the IC50 was determined as 0.205 µM.
Still for that read-out and setting: then `CNC(=O)COc1cccc(Nc2ncc(F)c(Nc3ccc4c(c3)C(NC(=O)OC(C)(C)C)CCO4)n2)c1` (racemic) [Compound R950405], with 1.36 µM; and `CNC(=O)COc1cccc(Nc2ncc(F)c(Nc3ccc4c(c3)C(N(C)C(=O)CN(C)C)CCO4)n2)c1` (racemic) [Compound R950419], with 3.26 µM; and `COc1ccc(Nc2nc(Nc3ccc4cn(C)nc4c3)ncc2F)cc1Cl` [Compound R935446], with 0.395 µM.
